Test results reported in ChEMBL document CHEMBL2034905, “Synthesis of benzimidazolyl-1,3,4-oxadiazol-2ylthio-N-phenyl (benzothiazolyl) acetamides as antibacterial, antifungal and antituberculosis agents” (Eur J Med Chem, 2012).
In brackets after ≈: the same amount, converted by molar mass.

How the values were obtained:
Proteus vulgaris [1] = assay: Antibacterial activity against Proteus vulgaris MTCC 1771 by agar streak dilution method; type: functional
Pseudomonas aeruginosa [2] = assay: Antibacterial activity against Pseudomonas aeruginosa MTCC 741 by agar streak dilution method; type: functional
Salmonella typhi [3] = assay: Antibacterial activity against Salmonella typhi MTCC 733 at 100 ug/disc by paper disc diffusion technique; type: functional, Salmonella enterica subsp. enterica serovar Typhi; conditions: Salmonella enterica, read-out: IZ
Klebsiella pneumoniae [4] = assay: Antibacterial activity against Klebsiella pneumoniae MTCC 109 by agar streak dilution method; type: functional
[5] = tested on: Mycobacterium tuberculosis; assay: Antituberculosis activity against Mycobacterium tuberculosis H37Rv at 6.25 ug/ml by Lowenstein-Jensen method; type: functional
Escherichia coli [6] = assay: Antibacterial activity against Escherichia coli MTCC 739 by agar streak dilution method; type: functional
Shigella flexneri [7] = assay: Antibacterial activity against Shigella flexneri MTCC 1457 by agar streak dilution method; type: functional
Bacillus cereus [8] = assay: Antibacterial activity against Bacillus cereus MTCC 430 at 100 ug/disc by paper disc diffusion technique; type: functional; conditions: read-out: IZ
[9] = tested on: Mycobacterium tuberculosis; assay: Antituberculosis activity against Mycobacterium tuberculosis H37Rv by Lowenstein-Jensen method; type: functional
[10] = tested on: Mycobacterium tuberculosis; assay: Antituberculosis activity against Mycobacterium tuberculosis H37Rv at 6.25 ug/ml by BACTEC MGIT method; type: functional
Klebsiella pneumoniae [11] = assay: Antibacterial activity against Klebsiella pneumoniae MTCC 109 at 100 ug/disc by paper disc diffusion technique; type: functional; conditions: read-out: IZ
Bacillus cereus [12] = assay: Antibacterial activity against Bacillus cereus MTCC 430 by agar streak dilution method; type: functional
[13] = tested on: Mycobacterium tuberculosis; assay: Antituberculosis activity against Mycobacterium tuberculosis H37Rv by BACTEC MGIT method; type: functional
Pseudomonas aeruginosa [14] = assay: Antibacterial activity against Pseudomonas aeruginosa MTCC 741 at 100 ug/disc by paper disc diffusion technique; type: functional; conditions: read-out: IZ
Aspergillus niger [15] = assay: Antifungal activity against Aspergillus niger MTCC 282 at 100 ug/disc by paper disc diffusion technique; type: functional; conditions: read-out: IZ
Escherichia coli [16] = assay: Antibacterial activity against Escherichia coli MTCC 739 at 100 ug/disc by paper disc diffusion technique; type: functional; conditions: read-out: IZ
Aspergillus niger [17] = assay: Antifungal activity against Aspergillus niger MTCC 282 by agar streak dilution method; type: functional
Aspergillus clavatus [18] = assay: Antifungal activity against Aspergillus clavatus MTCC 1323 by agar streak dilution method; type: functional
Shigella flexneri [19] = assay: Antibacterial activity against Shigella flexneri MTCC 1457 at 100 ug/disc by paper disc diffusion technique; type: functional; conditions: read-out: IZ
Staphylococcus aureus [20] = assay: Antibacterial activity against Staphylococcus aureus MTCC 96 at 100 ug/disc by paper disc diffusion technique; type: functional; conditions: read-out: IZ
Aspergillus fumigatus [21] = assay: Antifungal activity against Aspergillus fumigatus MTCC 343 by agar streak dilution method; type: functional
Candida albicans [22] = assay: Antifungal activity against Candida albicans MTCC 183 at 100 ug/disc by paper disc diffusion technique; type: functional; conditions: read-out: IZ
Salmonella typhi [23] = assay: Antibacterial activity against Salmonella typhi MTCC 733 by agar streak dilution method; type: functional, Salmonella enterica subsp. enterica serovar Typhi; conditions: Salmonella enterica
Proteus vulgaris [24] = assay: Antibacterial activity against Proteus vulgaris MTCC 1771 at 100 ug/disc by paper disc diffusion technique; type: functional; conditions: read-out: IZ
Candida albicans [25] = assay: Antifungal activity against Candida albicans MTCC 183 by agar streak dilution method; type: functional
Staphylococcus aureus [26] = assay: Antibacterial activity against Staphylococcus aureus MTCC 96 by agar streak dilution method; type: functional
Aspergillus fumigatus [27] = assay: Antifungal activity against Aspergillus fumigatus MTCC 343 at 100 ug/disc by paper disc diffusion technique; type: functional; conditions: read-out: IZ
[28] = Lipophilicity, log P of the compound; type: physicochemical; conditions: octanol/water
Aspergillus clavatus [29] = assay: Antifungal activity against Aspergillus clavatus MTCC 1323 at 100 ug/disc by paper disc diffusion technique; type: functional; conditions: read-out: IZ

Row | SMILES | MIC (Proteus vulgaris [1]) | MIC (Pseudomonas aeruginosa [2]) | zone of inhibition at 100 µg/disc (Salmonella typhi [3]) | MIC (Klebsiella pneumoniae [4]) | inhibition at 6.25 µg/mL [5] | MIC (Escherichia coli [6]) | MIC (Shigella flexneri [7]) | zone of inhibition at 100 µg/disc (Bacillus cereus [8]) | MIC [9] | zone of inhibition at 100 µg/disc (Klebsiella pneumoniae [11]) | MIC (Bacillus cereus [12]) | MIC [13] | zone of inhibition at 100 µg/disc (Pseudomonas aeruginosa [14]) | zone of inhibition at 100 µg/disc (Aspergillus niger [15]) | zone of inhibition at 100 µg/disc (Escherichia coli [16]) | MIC (Aspergillus niger [17]) | MIC (Aspergillus clavatus [18]) | zone of inhibition at 100 µg/disc (Shigella flexneri [19]) | zone of inhibition at 100 µg/disc (Staphylococcus aureus [20]) | MIC (Aspergillus fumigatus [21]) | other results
1 | COc1ccc(NC(=O)CSc2nnc(Cn3cnc4ccccc43)o2)cc1 | 25 µg/mL (≈ 63.2 µM) | 50 µg/mL (≈ 126 µM) | 20 mm | 100 µg/mL (≈ 253 µM) | 99% | 50 µg/mL (≈ 126 µM) | 50 µg/mL (≈ 126 µM) | 18 mm | 6.25 µg/mL (≈ 15.8 µM) | 11 mm | 50 µg/mL (≈ 126 µM) | 6.25 µg/mL (≈ 15.8 µM) | 21 mm | 16 mm | 20 mm | 100 µg/mL (≈ 253 µM) | 100 µg/mL (≈ 253 µM) | 19 mm | 13 mm | 100 µg/mL (≈ 253 µM) | inhibition at 6.25 µg/mL [10]: 99%; zone of inhibition at 100 µg/disc (Candida albicans [22]): 22 mm; MIC (Salmonella typhi [23]): 50 µg/mL (≈ 126 µM); zone of inhibition at 100 µg/disc (Proteus vulgaris [24]): 21 mm; MIC (Candida albicans [25]): 50 µg/mL (≈ 126 µM); MIC (Staphylococcus aureus [26]): 100 µg/mL (≈ 253 µM); zone of inhibition at 100 µg/disc (Aspergillus fumigatus [27]): 10 mm; logP [28]: 2.37; zone of inhibition at 100 µg/disc (Aspergillus clavatus [29]): < 10 mm
2 | Cc1ccc2nc(NC(=O)CSc3nnc(Cn4cnc5ccccc54)o3)sc2c1 | 50 µg/mL (≈ 115 µM) | 100 µg/mL (≈ 229 µM) | 11 mm | 100 µg/mL (≈ 229 µM) | 97% | 100 µg/mL (≈ 229 µM) | 100 µg/mL (≈ 229 µM) | 19 mm | 200 µg/mL (≈ 458 µM) | 18 mm | 50 µg/mL (≈ 115 µM) | > 6.25 µg/mL | 15 mm | 12 mm | 12 mm | 100 µg/mL (≈ 229 µM) | 100 µg/mL (≈ 229 µM) | 14 mm | 15 mm | 100 µg/mL (≈ 229 µM) | zone of inhibition at 100 µg/disc (Candida albicans [22]): 15 mm; MIC (Salmonella typhi [23]): 100 µg/mL (≈ 229 µM); zone of inhibition at 100 µg/disc (Proteus vulgaris [24]): 20 mm; MIC (Candida albicans [25]): 100 µg/mL (≈ 229 µM); MIC (Staphylococcus aureus [26]): 50 µg/mL (≈ 115 µM); zone of inhibition at 100 µg/disc (Aspergillus fumigatus [27]): < 10 mm; logP [28]: 4.18; zone of inhibition at 100 µg/disc (Aspergillus clavatus [29]): 12 mm
3 | COc1ccc2nc(NC(=O)CSc3nnc(Cn4cnc5ccccc54)o3)sc2c1 | 12.5 µg/mL (≈ 27.6 µM) | 100 µg/mL (≈ 221 µM) | 20 mm | 50 µg/mL (≈ 110 µM) | 99% | 50 µg/mL (≈ 110 µM) | 6.25 µg/mL (≈ 13.8 µM) | 20 mm | 12.5 µg/mL (≈ 27.6 µM) | 21 mm | 50 µg/mL (≈ 110 µM) | > 6.25 µg/mL | 12 mm | 17 mm | 18 mm | 50 µg/mL (≈ 110 µM) | 50 µg/mL (≈ 110 µM) | 24 mm | 19 mm | 100 µg/mL (≈ 221 µM) | zone of inhibition at 100 µg/disc (Candida albicans [22]): 25 mm; MIC (Salmonella typhi [23]): 50 µg/mL (≈ 110 µM); zone of inhibition at 100 µg/disc (Proteus vulgaris [24]): 26 mm; MIC (Candida albicans [25]): 25 µg/mL (≈ 55.2 µM); MIC (Staphylococcus aureus [26]): 25 µg/mL (≈ 55.2 µM); zone of inhibition at 100 µg/disc (Aspergillus fumigatus [27]): < 10 mm; logP [28]: 3.56; zone of inhibition at 100 µg/disc (Aspergillus clavatus [29]): 22 mm
4 | CCOc1ccc2nc(NC(=O)CSc3nnc(Cn4cnc5ccccc54)o3)sc2c1 | 12.5 µg/mL (≈ 26.8 µM) | 50 µg/mL (≈ 107 µM) | 19 mm | 50 µg/mL (≈ 107 µM) | 99% | 25 µg/mL (≈ 53.6 µM) | 50 µg/mL (≈ 107 µM) | 21 mm | 50 µg/mL (≈ 107 µM) | 21 mm | 50 µg/mL (≈ 107 µM) | > 6.25 µg/mL | 18 mm | 20 mm | 24 mm | 25 µg/mL (≈ 53.6 µM) | 100 µg/mL (≈ 214 µM) | 19 mm | 22 mm | 100 µg/mL (≈ 214 µM) | zone of inhibition at 100 µg/disc (Candida albicans [22]): 26 mm; MIC (Salmonella typhi [23]): 50 µg/mL (≈ 107 µM); zone of inhibition at 100 µg/disc (Proteus vulgaris [24]): 26 mm; MIC (Candida albicans [25]): 25 µg/mL (≈ 53.6 µM); MIC (Staphylococcus aureus [26]): 12.5 µg/mL (≈ 26.8 µM); zone of inhibition at 100 µg/disc (Aspergillus fumigatus [27]): 13 mm; logP [28]: 3.9; zone of inhibition at 100 µg/disc (Aspergillus clavatus [29]): 17 mm
5 | CC(=O)Nc1ccc2nc(NC(=O)CSc3nnc(Cn4cnc5ccccc54)o3)sc2c1 | 12.5 µg/mL (≈ 26.1 µM) | 100 µg/mL (≈ 209 µM) | 16 mm | 50 µg/mL (≈ 104 µM) | 98% | 50 µg/mL (≈ 104 µM) | 100 µg/mL (≈ 209 µM) | 16 mm | 50 µg/mL (≈ 104 µM) | 20 mm | 100 µg/mL (≈ 209 µM) | > 6.25 µg/mL | < 10 mm | 24 mm | 20 mm | 12.5 µg/mL (≈ 26.1 µM) | 50 µg/mL (≈ 104 µM) | 16 mm | 19 mm | 100 µg/mL (≈ 209 µM) | zone of inhibition at 100 µg/disc (Candida albicans [22]): 23 mm; MIC (Salmonella typhi [23]): 100 µg/mL (≈ 209 µM); zone of inhibition at 100 µg/disc (Proteus vulgaris [24]): 24 mm; MIC (Candida albicans [25]): 50 µg/mL (≈ 104 µM); MIC (Staphylococcus aureus [26]): 50 µg/mL (≈ 104 µM); zone of inhibition at 100 µg/disc (Aspergillus fumigatus [27]): < 10 mm; logP [28]: 2.6; zone of inhibition at 100 µg/disc (Aspergillus clavatus [29]): 23 mm
6 | CC[C@@H](CO)NCCN[C@@H](CC)CO [ETHAMBUTOL] | – | – | – | – | – | – | – | – | – | – | – | 3.12 µg/mL (≈ 15.3 µM) | – | – | – | – | – | – | – | – | inhibition at 6.25 µg/mL [10]: 99%
7 | NC(=O)c1cnccn1 [PYRAZINAMIDE] | – | – | – | – | – | – | – | – | – | – | – | 6.25 µg/mL (≈ 50.8 µM) | – | – | – | – | – | – | – | – | inhibition at 6.25 µg/mL [10]: 99%
8 | CO[C@H]1/C=C/O[C@@]2(C)Oc3c(C)c(O)c4c(O)c(c(/C=N/N5CCN(C)CC5)c(O)c4c3C2=O)NC(=O)/C(C)=C\C=C\[C@H](C)[C@H](O)[C@@H](C)[C@@H](O)[C@@H](C)[C@H](OC(C)=O)[C@@H]1C [RIFAMPIN] | – | – | – | – | – | – | – | – | – | – | – | 0.25 µg/mL (≈ 0.304 µM) | – | – | – | – | – | – | – | – | inhibition at 6.25 µg/mL [10]: 99%
